Assay results reported in the NIST ThermoML archive (doi:10.1021/je034002l).
Numbers after ± are expanded uncertainties.

Experiment: xn = mol fraction of the nth substance listed
Details: 101.3 kPa, Liquid

CCCCCCCl [1-chlorohexane] + CCCCCC
Details | mass density [kg/m3] | viscosity [mPa·s]
293.15 K, x1 = 0.1 | 683.01 ± 0.55 | 0.3403 ± 0.0053
293.15 K, x1 = 0.15 | 694.01 ± 0.57 | 0.3532 ± 0.0054
293.15 K, x1 = 0.2 | 706.37 ± 0.58 | 0.3669 ± 0.0056
293.15 K, x1 = 0.3 | 728.21 ± 0.61 | 0.3965 ± 0.0059
293.15 K, x1 = 0.5 | 771.87 ± 0.68 | 0.4691 ± 0.0067
293.15 K, x1 = 0.7 | 815.39 ± 0.74 | 0.5662 ± 0.0078
293.15 K, x1 = 0.9 | 856.91 ± 0.81 | 0.6932 ± 0.0093
293.15 K, x1 = 1 | 878.52 ± 0.84 | 0.7704 ± 0.01
298.15 K, x1 = 0.1 | 678.51 ± 0.59 | 0.3263 ± 0.0051
298.15 K, x1 = 0.15 | 689.61 ± 0.61 | 0.3384 ± 0.0052
298.15 K, x1 = 0.2 | 701.84 ± 0.62 | 0.352 ± 0.0054
298.15 K, x1 = 0.3 | 723.73 ± 0.65 | 0.3794 ± 0.0057
298.15 K, x1 = 0.5 | 767.36 ± 0.72 | 0.4464 ± 0.0065
298.15 K, x1 = 0.7 | 810.91 ± 0.78 | 0.5367 ± 0.0075
298.15 K, x1 = 0.9 | 852.37 ± 0.84 | 0.6495 ± 0.0088
298.15 K, x1 = 1 | 873.75 ± 0.88 | 0.7173 ± 0.0096
303.15 K, x1 = 0.1 | 673.93 ± 0.63 | 0.313 ± 0.005
303.15 K, x1 = 0.15 | 685.15 ± 0.65 | 0.3245 ± 0.0051
303.15 K, x1 = 0.2 | 697.27 ± 0.66 | 0.3377 ± 0.0052
303.15 K, x1 = 0.3 | 719.21 ± 0.69 | 0.3632 ± 0.0055
303.15 K, x1 = 0.5 | 762.82 ± 0.76 | 0.4254 ± 0.0062
303.15 K, x1 = 0.7 | 806.39 ± 0.82 | 0.5094 ± 0.0072
303.15 K, x1 = 0.9 | 847.8 ± 0.88 | 0.6103 ± 0.0084
303.15 K, x1 = 1 | 868.98 ± 0.91 | 0.6702 ± 0.0091
308.15 K, x1 = 0.1 | 669.37 ± 0.67 | 0.2998 ± 0.0048
308.15 K, x1 = 0.15 | 680.63 ± 0.69 | 0.3107 ± 0.0049
308.15 K, x1 = 0.2 | 692.67 ± 0.7 | 0.3233 ± 0.0051
308.15 K, x1 = 0.3 | 714.64 ± 0.73 | 0.3475 ± 0.0054
308.15 K, x1 = 0.5 | 758.26 ± 0.79 | 0.4061 ± 0.006
308.15 K, x1 = 0.7 | 801.83 ± 0.86 | 0.4844 ± 0.0069
308.15 K, x1 = 0.9 | 843.21 ± 0.92 | 0.5754 ± 0.008
308.15 K, x1 = 1 | 864.21 ± 0.95 | 0.6283 ± 0.0086
313.15 K, x1 = 0.1 | 664.73 ± 0.71 | 0.2881 ± 0.0047
313.15 K, x1 = 0.15 | 676.04 ± 0.73 | 0.2985 ± 0.0048
313.15 K, x1 = 0.2 | 688.03 ± 0.74 | 0.3109 ± 0.005
313.15 K, x1 = 0.3 | 710.03 ± 0.77 | 0.3337 ± 0.0052
313.15 K, x1 = 0.5 | 753.66 ± 0.83 | 0.3884 ± 0.0058
313.15 K, x1 = 0.7 | 797.24 ± 0.9 | 0.4614 ± 0.0067
313.15 K, x1 = 0.9 | 838.59 ± 0.96 | 0.5436 ± 0.0076
313.15 K, x1 = 1 | 859.44 ± 0.99 | 0.591 ± 0.0082
318.15 K, x1 = 0.1 | 660.04 ± 0.75 | 0.2765 ± 0.0046
318.15 K, x1 = 0.15 | 671.39 ± 0.77 | 0.2865 ± 0.0047
318.15 K, x1 = 0.2 | 683.36 ± 0.78 | 0.2984 ± 0.0048
318.15 K, x1 = 0.3 | 705.37 ± 0.81 | 0.3201 ± 0.0051
318.15 K, x1 = 0.5 | 749.03 ± 0.87 | 0.372 ± 0.0057
318.15 K, x1 = 0.7 | 792.61 ± 0.94 | 0.4402 ± 0.0064
318.15 K, x1 = 0.9 | 833.95 ± 1 | 0.5152 ± 0.0073
318.15 K, x1 = 1 | 854.67 ± 1 | 0.558 ± 0.0078
323.15 K, x1 = 0.1 | 655.31 ± 0.79 | 0.266 ± 0.0045
323.15 K, x1 = 0.15 | 666.68 ± 0.81 | 0.2755 ± 0.0046
323.15 K, x1 = 0.2 | 678.65 ± 0.82 | 0.2868 ± 0.0047
323.15 K, x1 = 0.3 | 700.66 ± 0.85 | 0.3076 ± 0.0049
323.15 K, x1 = 0.5 | 744.37 ± 0.91 | 0.3569 ± 0.0055
323.15 K, x1 = 0.7 | 787.95 ± 0.97 | 0.4208 ± 0.0062
323.15 K, x1 = 0.9 | 829.29 ± 1 | 0.4899 ± 0.007
323.15 K, x1 = 1 | 849.9 ± 1.1 | 0.5285 ± 0.0075
328.15 K, x1 = 0.1 | 650.53 ± 0.83 | 0.256 ± 0.0043
328.15 K, x1 = 0.15 | 661.91 ± 0.85 | 0.2652 ± 0.0044
328.15 K, x1 = 0.2 | 673.9 ± 0.86 | 0.2759 ± 0.0046
328.15 K, x1 = 0.3 | 695.91 ± 0.89 | 0.2959 ± 0.0048
328.15 K, x1 = 0.5 | 739.68 ± 0.95 | 0.3428 ± 0.0053
328.15 K, x1 = 0.7 | 783.25 ± 1 | 0.4027 ± 0.006
328.15 K, x1 = 0.9 | 824.61 ± 1.1 | 0.4666 ± 0.0068
328.15 K, x1 = 1 | 845.12 ± 1.1 | 0.5019 ± 0.0072
333.15 K, x1 = 0.1 | 645.7 ± 0.87 | 0.2468 ± 0.0042
333.15 K, x1 = 0.15 | 657.07 ± 0.89 | 0.2556 ± 0.0043
333.15 K, x1 = 0.2 | 669.12 ± 0.9 | 0.2658 ± 0.0045
333.15 K, x1 = 0.3 | 691.11 ± 0.93 | 0.2849 ± 0.0047
333.15 K, x1 = 0.5 | 734.96 ± 0.99 | 0.3297 ± 0.0052
333.15 K, x1 = 0.7 | 778.51 ± 1.1 | 0.3862 ± 0.0058
333.15 K, x1 = 0.9 | 819.9 ± 1.1 | 0.4455 ± 0.0065
333.15 K, x1 = 1 | 840.35 ± 1.1 | 0.4778 ± 0.0069
